The record followed here is patent US20260069539A1, “LIPIDOID COMPOUNDS AND RELATED COMPOSITIONS AND USES” (Poseida Therapeutics, Inc., priority 2023, published 2026).

Data set [1] relates to liver cells. The data set can be described thus: In vivo LNP delivery of DNA encoding firefly luciferase, bioluminescent imaging (BLI) at 48 hr. Further details: species or system BALB/C mice. Conditions: for Mean Luciferase Flux (p/s): adult BALB/C mice, 0.5 mg/kg DNA encoding firefly luciferase in LNP; for Mean Luciferase Flux (p/s) / Total Flux: BLI at 48 hr; for Total Flux: Example 103, 0.5 mg/kg DNA intravenous. Here is the method: Adult BALB/C mice (n=3) were administered 0.5 mg/kg of DNA encoding firefly luciferase (Nature Technology Corp) formulated in a LNP composition listed in Table 4. One group of mice was treated with vehicle (PBS, Thermo Fisher Scientific, USA) as a negative control.
The location and extent of luciferase expression in treated and control mice were determined at 48 hr for DNA delivery by bioluminescent imaging (BLI) of anesthetized mice using an IVIS Lumina in vivo imaging system (Perkin Elmer) according to the manufacturer's instructions. Briefly, mice were anesthetized using isoflurane in oxygen, and placed supine on a heated stage. Mice were then administered D-luciferin (Perkin-Elmer #122799) IP, and BLI was performed.
The location and extent of luciferase expression in treated and control mice were determined at 48 hr for DNA by bioluminescent imaging (BLI) of anesthetized mice using an IVIS Lumina in vivo imaging system (Perkin Elmer) according to the manufacturer's instructions. Briefly, mice were anesthetized using isoflurane in oxygen, and placed supine on a heated stage. Mice were then administered D-luciferin (Perkin-Elmer #122799) IP, and BLI was performed. […]
Body weight loss (BWL) measurements were taken at 24 hrs post administration and luciferase expression was measured by whole body luminescence imaging (BLI) at 48 hours post-administration. […]
Luciferase expression was measured by whole body luminescence imaging (BLI) at 48 hours post-administration.

In data set [2] the test system is liver cells. The experiment in a line: In vivo LNP delivery of fLuciferase mRNA, bioluminescent imaging (BLI) at 4 hr. Further details: species or system BALB/C mice. Conditions: for Mean Luciferase Flux: 0.5 mg/kg fLuc mRNA i.v., 4 hr; for Total Flux: 0.5 mg/kg fLuciferase mRNA intravenous. Here is the method: Adult female BALB/C mice (n=3/group) were intravenously administered 0.5 mg/kg of 5′-CleanCap—fLuciferase mRNA (TriLink Biotech) formulated with the LNP compositions shown in Table 6. One group of mice was treated with vehicle (PBS, Thermo Fisher Scientific, USA) as a negative control.
The location and extent of luciferase expression in treated and control mice were determined at 4 hr for mRNA and 48 hr for DNA by bioluminescent imaging (BLI) of anesthetized mice using an IVIS Lumina in vivo imaging system (Perkin Elmer) according to the manufacturer's instructions. Briefly, mice were anesthetized using isoflurane in oxygen, and placed supine on a heated stage. Mice were then administered D-luciferin (Perkin-Elmer #122799) IP, and BLI was performed.
(§1) The location and extent of luciferase expression in treated and control mice were determined at 4 hr by bioluminescent imaging (BLI) of anesthetized mice using an IVIS Lumina in vivo imaging system (Perkin Elmer) according to the manufacturer's instructions. Briefly, mice were anesthetized using isoflurane in oxygen, and placed supine on a heated stage. Mice were then administered D-luciferin (Perkin-Elmer #122799) IP, and BLI was performed.
as §1
The location and extent of luciferase expression in treated and control mice were determined at 4 hr by bioluminescent imaging (BLI) of anesthetized mice using an IVIS Lumina in vivo imaging system (Perkin Elmer) according to the manufacturer's instructions.
Briefly, mice were anesthetized using isoflurane in oxygen, and placed supine on a heated stage. Mice were then administered D-luciferin (Perkin-Elmer #122799) IP, and BLI was performed.
as §1

Data set [3] can be described thus: Body weight change / body weight loss 24 hours post-administration of LNP. In kind it is in vivo, BALB/C mice. As to conditions: fLuc mRNA 0.5 mg/kg i.v. The procedure: In addition, the body weight of mice treated with LNP compositions of the present disclosure prepared as described in Example 77 was assessed prior to intravenous administration and 24 hours post-administration and the body weights at baseline and post-treatment were compared.
In addition, the body weight of mice treated with LNP compositions of the present disclosure was assessed prior to intravenous administration and 24 hours post-administration and the body weights at baseline and post-treatment were compared.
Body weight loss (BWL) measurements were taken at 24 hrs post administration and luciferase expression was measured by whole body luminescence imaging (BLI) at 48 hours post-administration.
Blood was drawn from control and treated mice 4 hrs post-administration for cytokine analysis, body weight loss (BWL) measurements were taken at 24 hrs post administration and luciferase expression was measured by whole body luminescence imaging (BLI) at 48 hours post-administration.

Where [4] appears, read: LNP with 50 % moles of COMPOUND NO. 38 or 39 (DOPC 10/Chol 38.5/PEG-DMG 1.5, Lipid:RNA 80).
Where [5] appears, read: Example 104, experiment of Table 63, BLI at 4 hr.
[6] abbreviates: Example 104, experiment of Table 64, BLI at 4 hr.
[7] abbreviates: Example 104, experiment of Table 65, BLI at 4 hr.

Turning to `CCCCCC1CCC(C(=O)OCCOC(=O)CCN(CCCN(C)CCCN(CCC(=O)OCCOC(=O)[C@H]2CC[C@H](CCCCC)CC2)CCC(=O)OCCOC(=O)[C@H]2CC[C@H](CCCCC)CC2)CCC(=O)OCCOC(=O)C2CCC(CCCCC)CC2)CC1` (stereo partly drawn) [COMPOUND NO. 3], the “Mean Luciferase Flux (p/s)” value with liver cells [1] came out at 2.12E+08 p/s. Still for that read-out and setting: with `CCCCCC1CCC(C(=O)OCCOC(=O)CCN(CCCN(C)CCN(CCC(=O)OCCOC(=O)[C@H]2CC[C@H](CCCCC)CC2)CCC(=O)OCCOC(=O)[C@H]2CC[C@H](CCCCC)CC2)CCC(=O)OCCOC(=O)C2CCC(CCCCC)CC2)CC1` (stereo partly drawn) [COMPOUND NO. 4] the figure was 1.36E+09 p/s. Regarding `CCCCC[C@H]1CC[C@H](C(=O)OCC(COC(=O)CCCCCN(CCCCO)CCCCCC(=O)COC(COC(=O)[C@H]2CC[C@H](CCCCC)CC2)COC(=O)[C@H]2CC[C@H](CCCCC)CC2)COC(=O)[C@H]2CC[C@H](CCCCC)CC2)CC1` [COMPOUND NO. 38], the “Mean Luciferase Flux” value with liver cells [2] (setting [4]) was found to be 1.17E+11 p/s. Also, the “Total Flux” value in the data set on liver cells [1] (LNP with 10% DSPC) is given as 8.29E+07 p/s. Turning to `CCCCC[C@H]1CC[C@H](C(=O)OCC(COC(=O)CCCCCN(CCCCCC(=O)COC(COC(=O)[C@H]2CC[C@H](CCCCC)CC2)COC(=O)[C@H]2CC[C@H](CCCCC)CC2)CCCCNC(C)=O)COC(=O)[C@H]2CC[C@H](CCCCC)CC2)CC1` [COMPOUND NO. 39], in the data set with liver cells [2] (setting [4]), the “Mean Luciferase Flux” value is 9.49E+10 p/s. Moreover, the “Total Flux” value with liver cells [1] (LNP with 10% DOPC) came out at 2.03E+06 p/s.

As for `CCCCCC(=O)OCC1CCC(COC(=O)C(CCCN(C)CCCC(C(=O)OCC2CCC(COC(=O)CCCCC)CC2)C(=O)OCC2CCC(COC(=O)CCCCC)CC2)C(=O)OCC2CCC(COC(=O)CCCCC)CC2)CC1` (stereo not drawn) [COMPOUND NO. 41], the “% body weight change” value in data set [3] (LNP with 40.75 % moles of the compound) is −1.8%; in data set [3] (LNP with 50 % moles of the compound), −2.6%. In addition, the “Mean Luciferase Flux” value in the data set with liver cells [2] (Table 15 experiment, LNP with 40.75 % moles of the compound (Lipid:RNA 80)) is given as 3.79E+09 p/s; in the data set with liver cells [2] (Table 15 experiment, LNP with 50 % moles of the compound (Lipid:RNA 80)) it was 5.26E+09 p/s.

On to `CCCCC[C@H]1CC[C@H](C(=O)OCC(COC(=O)CCCCCN(CCCCCC(=O)OCC(COC(=O)[C@H]2CC[C@H](CCCCC)CC2)COC(=O)[C@H]2CC[C@H](CCCCC)CC2)[C@H]2CC[C@H](O)CC2)COC(=O)[C@H]2CC[C@H](CCCCC)CC2)CC1` [COMPOUND NO. 53], for which the “Total Flux” value in the data set with liver cells [1] (LNP with 10% DOPC) was determined as 4.23E+07 p/s. Turning to `CCCCC[C@H]1CC[C@H](C(=O)OCC(COC(=O)CCCCCN(CCCCCC(=O)OCC(COC(=O)[C@H]2CC[C@H](CCCCC)CC2)COC(=O)[C@H]2CC[C@H](CCCCC)CC2)C[C@@H](C)O)COC(=O)[C@H]2CC[C@H](CCCCC)CC2)CC1` [COMPOUND NO. 57], in the data set on liver cells [2] (setting [5]), the “Total Flux” value was 9.69E+10 p/s. `CCCCC[C@H]1CC[C@H](C(=O)OCC(COC(=O)CCCCCN(CCC)CCCCCC(=O)OCC(COC(=O)[C@H]2CC[C@H](CCCCC)CC2)COC(=O)[C@H]2CC[C@H](CCCCC)CC2)COC(=O)[C@H]2CC[C@H](CCCCC)CC2)CC1` [COMPOUND NO. 58]: the “Total Flux” value in the data set with liver cells [2] (setting [6]) amounted to 4.38E+09 p/s. For the compound `CCCCC[C@H]1CC[C@H](C(=O)OCC(COC(=O)CCCCCN(CCCCCC(=O)OCC(COC(=O)[C@H]2CC[C@H](CCCCC)CC2)COC(=O)[C@H]2CC[C@H](CCCCC)CC2)C[C@@H](O)CO)COC(=O)[C@H]2CC[C@H](CCCCC)CC2)CC1` [COMPOUND NO. 60], in the data set with liver cells [2] (setting [6]), the “Total Flux” value was found to be 6.51E+10 p/s.

`CCCCC[C@H]1CC[C@H](C(=O)OCC(COC(=O)CCCCCN(CCCCCC(=O)OCC(COC(=O)[C@H]2CC[C@H](CCCCC)CC2)COC(=O)[C@H]2CC[C@H](CCCCC)CC2)C[C@H](O)CO)COC(=O)[C@H]2CC[C@H](CCCCC)CC2)CC1` [COMPOUND NO. 61]: the “Total Flux” value in the data set on liver cells [2] (setting [6]) was determined as 1.04E+11 p/s. Consider `CCCCC[C@H]1CC[C@H](C(=O)OCC(COC(=O)CCCCCN(CCCCCC(=O)OCC(COC(=O)[C@H]2CC[C@H](CCCCC)CC2)COC(=O)[C@H]2CC[C@H](CCCCC)CC2)C(CO)CO)COC(=O)[C@H]2CC[C@H](CCCCC)CC2)CC1` [COMPOUND NO. 62], for which, in the data set on liver cells [2] (setting [7]), the “Total Flux” value is listed as 2.20E+11 p/s. As for `CCCCC[C@H]1CC[C@H](C(=O)OCC(COC(=O)CCCCCN(CCCCCC(=O)OCC(COC(=O)[C@H]2CC[C@H](CCCCC)CC2)COC(=O)[C@H]2CC[C@H](CCCCC)CC2)Cc2ccccc2)COC(=O)[C@H]2CC[C@H](CCCCC)CC2)CC1` [COMPOUND NO. 63], in the data set on liver cells [2] (setting [6]), the “Total Flux” value is recorded as 3.48E+05 p/s. For `O=C(CCCCCN(CCO)CCCCCC(=O)OCC(COC(=O)CCCCC1CCCCC1)COC(=O)CCCCC1CCCCC1)OCC(COC(=O)CCCCC1CCCCC1)COC(=O)CCCCC1CCCCC1` [COMPOUND NO. 65], in the data set with liver cells [2] (setting [5]), the “Total Flux” value is on record as 1.30E+11 p/s.

As for `O=C(CCCCCN(CCCO)CCCCCC(=O)OCC(COC(=O)CCCCC1CCCCC1)COC(=O)CCCCC1CCCCC1)OCC(COC(=O)CCCCC1CCCCC1)COC(=O)CCCCC1CCCCC1` [COMPOUND NO. 66], in the data set on liver cells [2] (setting [5]), the “Total Flux” value is reported as 3.25E+11 p/s. With `O=C(CCCCCN(CCCCO)CCCCCC(=O)OCC(COC(=O)CCCCC1CCCCC1)COC(=O)CCCCC1CCCCC1)OCC(COC(=O)CCCCC1CCCCC1)COC(=O)CCCCC1CCCCC1` [COMPOUND NO. 67], the “Total Flux” value in the data set with liver cells [2] (setting [7]) is 3.79E+11 p/s. Same read-out and setting: to `CCCCC[C@H]1CC[C@H](C(=O)OCC(COC(=O)CCCCN(CCO)CCCCC(=O)OCC(COC(=O)[C@H]2CC[C@H](CCCCC)CC2)COC(=O)[C@H]2CC[C@H](CCCCC)CC2)COC(=O)[C@H]2CC[C@H](CCCCC)CC2)CC1` [COMPOUND NO. 71] belongs 1.78E+11 p/s; to `CCCCC[C@H]1CC[C@H](C(=O)OCC(COC(=O)CCCCN(CCCO)CCCCC(=O)OCC(COC(=O)[C@H]2CC[C@H](CCCCC)CC2)COC(=O)[C@H]2CC[C@H](CCCCC)CC2)COC(=O)[C@H]2CC[C@H](CCCCC)CC2)CC1` [COMPOUND NO. 72], 2.40E+11 p/s. In the case of `CCCCC[C@H]1CC[C@H](C(=O)OCC(COC(=O)CCCCN(CCCCO)CCCCC(=O)OCC(COC(=O)[C@H]2CC[C@H](CCCCC)CC2)COC(=O)[C@H]2CC[C@H](CCCCC)CC2)COC(=O)[C@H]2CC[C@H](CCCCC)CC2)CC1` [COMPOUND NO. 73], the “Total Flux” value in the data set with liver cells [2] (setting [7]) turned out to be 1.61E+11 p/s. Regarding `CCCCCCCCCCCC(=O)OCC(COC(=O)CCCCCCCCCCC)COC(=O)CCCCCN(CCO)CCCCCC(=O)OCC(COC(=O)CCCCCCCCCCC)COC(=O)CCCCCCCCCCC` [compound 100, reference compound], the RNA delivery potency entry in the data set with liver cells [2] (0.5 mg/kg fLuciferase mRNA in LNP, BLI at 4 hr) is “RNA delivery potency increases with increasing number of cyclohexyl-substituted tails”. Moreover, the “Total Flux” value with liver cells [2] (setting [6]) amounted to 3.24E+10 p/s; in the data set with liver cells [1] (LNP comprising compound 100, composition not stated), 1.97E+07 p/s. Further, in the data set on liver cells [1] (0.5 mg/kg DNA, BLI 48 hr, compared to LNPs comprising COMPOUND NOS. 36, 37, or 38), the DNA delivery potency entry is “greatly reduced”.
